Measured values as given in patent US7883874B2, “Galactooligosaccharide composition and the preparation thereof” (Clasado Inc., priority 2003, dated 2011).

Assay: Case study 1, inflammatory bowel disease (ulcerative colitis)
Format: in vivo, human
Settings: same patient, used previously
Excerpt: A patient with diagnosed ulcerative colitis (one of 2 major forms of IBD) is cited as a case study on the effects of the GOS product, prepared according to Example 1 The patient had suffered from ulcerative colitis for 5 years and was free of medication prior to, and during, the test period. […] The patient had difficulty in digesting foods, was on a standard diet, suffered from nausea, diarrhoea and abdominal pain. The latter was left side large intestine, which correlated with the diagnosis of colitis based inflammation of the descending colon. A total daily GOS dose of 7 g/d (in 2 separate doses) was ingested. Within 4 days of intake, symptoms began to improve. The patient was better able to digest their diet, gut pains began to recede and nausea was reduced. […] The only change to the diet was the addition of GOS. Six weeks later, this effect has been maintained.

Compound: O=C(O)c1cc(/N=N/c2ccc(S(=O)(=O)Nc3ccccn3)cc2)ccc1O [sulphasalazine]
- effect of earlier treatment on ulcerative colitis: no positive effect
